Experimental data published in patent US8178544B2, “2, 3-diamino-quinazolinone derivatives and their medical use” (Neurosearch A/S, priority 2007, dated 2012).

Biological target: T1, human Kv7.2+Kv7.3 channels (Homo sapiens, UniProt O43525+O43526)
T1 construct: expressed in transfected cells; host or cells: HEK293
Experiment: Patch-clamp on HEK293 cell lines stably expressing human Kv7.2+Kv7.3 channels
Type: cell-based
Conditions: current relative to baseline current defined as 100%, HEK293 cells, test concentration not given
Excerpt: The effect obtained by these channel activators is described as a percentage increase in baseline current at a given concentration. The baseline current is defined as 100%, and an increase in current is expressed relative to this, i.e. an increase from 1 nA to 1.2 nA is reported as 120%.

SMILES	IK (%) at −30 mV, 1 s [%]
O=C(Cc1cc(F)cc(F)c1)Nn1c(N2CCCC2)nc2ccccc2c1=O [Compound C1, 2-(3,5-Difluoro-phenyl)-N-(4-oxo-2-pyrrolidin-1-yl-4H-quinazolin-3-yl)-acetamide]	150
CC(C(=O)Nn1c(N(C)C)nc2cc(C(F)(F)F)ccc2c1=O)c1cc(F)cc(F)c1 (stereo not shown) [Compound C5, 2-(3,5-Difluoro-phenyl)-N-(2-dimethylamino-4-oxo-7-trifluoromethyl-4H-quinazolin-3yl)-propionamide]	143
O=C(Cc1ccc(C(F)(F)F)c(F)c1)Nn1c(N2CCCC2)nc2ccccc2c1=O [Compound C11, 2-(3-Fluoro-4-trifluoromethyl-phenyl)-N-(4-oxo-2-pyrrolidin-1-yl-4H-quinazolin-3-yl)-acetamide]	153

The remaining lines, values ahead:

IK (%) at −30 mV, 1 s [%]	SMILES
144	CCN(CC)c1nc2ccccc2c(=O)n1NC(=O)Cc1ccc(Cl)cc1 [Compound C3, 2-(4-Chloro-phenyl)-N-(2-diethylamino-4-oxo-4H-quinazolin-3-yl)-acetamide]
215	CCN(CC)c1nc2ccc(F)cc2c(=O)n1NC(=O)Cc1cc(F)cc(F)c1 [Compound C19, N-(2-Diethylamino-6-fluoro-4-oxo-4H-quinazolin-3-yl)-2-(3,5-difluoro-phenyl)-acetamide]
290	CCN(CC)c1nc2ccccc2c(=O)n1NC(=O)Cc1cc(F)cc(F)c1 [Compound D2, N-(2-Diethylamino-4-oxo-4H-quinazolin-3-yl)-2-(3,5-difluoro-phenyl)-acetamide]
110	CCN(CC)c1nc2ccc(O)cc2c(=O)n1NC(=O)Cc1cc(F)cc(F)c1 [Compound F1, N-(2-Diethylamino-6-hydroxy-4-oxo-4H-quinazolin-3-yl)-2-(3,5-difluoro-phenyl)-acetamide]
